Patent US9833497B2, “Human originated EGF domain proteins and use of the same” (CHENGDU SOURCEBIO LIMITED-LIABILITY COMPANY, priority 2013, dated 2017)

Tests used:
Format in all cases: cell-based
Enterobacter cloacae = test: MIC against Gram-negative bacteria: Enterobacter cloacae
Summary of the method: (§1)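 Inocula prepared by growing LB cultures at 37° C to 0.5 McFarland, centrifuging at 4000×g, and resuspending in fresh medium. Final density 5×10^5 CFU/mL per well with two-fold dilutions of purified EGF domain protein; shaking incubation at 37° C.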

Moraxella catarrhalis = test: MIC against Gram-negative bacteria: Moraxella catarrhalis
Summary of the method: as §1

Aeromonas hydrophila = test: MIC against Gram-negative bacteria: Aeromonas hydrophila
Summary of the method: as §1

Pseudomonas aeruginosa = test: MIC against Gram-negative bacteria: Pseudomonas aeruginosa
Summary of the method: as §1

E. coli DH5α = test: Antibacterial activity: MIC and growth curve against E. coli DH5α in 96-well plate; details: minimal inhibitory concentration against E. coli DH5α; 96-well plate, 5×10^5 CFU/mL, 37° C., judged after 8 h
Summary of the method: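 MIC taken as lowest protein level with no bacterial growth, tracked by A600 every 30 min during 37 °C, 175 rpm culture. Two-fold protein series 50-12.5 μg/mL final, triplicate wells, against 5×10^5 CFU/mL of LB-washed mid-log cells.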

Klebsiella pneumonia = test: MIC against Gram-negative bacteria: Klebsiella pneumonia
Summary of the method: as §1

Serratia marcescens = test: MIC against Gram-negative bacteria: Serratia marcescens
Summary of the method: as §1

E. coli BL21 = test: MIC against Gram-negative bacteria: E. coli BL21
Summary of the method: as §1

Citrobacter diversus = test: MIC against Gram-negative bacteria: Citrobacter diversus
Summary of the method: as §1

Proteus mirabilis = test: MIC against Gram-negative bacteria: Proteus mirabilis
Summary of the method: as §1

Proteus vulgaris = test: MIC against Gram-negative bacteria: Proteus vulgaris
Summary of the method: as §1

[1] = 96-well plate, 5×10^5 CFU/mL, 37° C., 10 h
[2] = 10 h cultivation at 37° C., 5×10^5 CFU/mL, two-fold serial dilution

PRT92 (VSDLCATGDHDCEQVCISSPGSYTCACHEGFTLNSDGKTCN; listed as Homo sapiens)
50 µg/mL: MIC (μg/mL) E. cloacae (Enterobacter cloacae; Enterobacter cloacae, 96-well plate, 5×10^5 CFU/mL, 37° C., 10 h) | MIC (μg/mL) P. aeruginosa (Pseudomonas aeruginosa; Pseudomonas aeruginosa, 96-well plate, 5×10^5 CFU/mL, 37° C., 10 h) | MIC (E. coli DH5α) | MIC (μg/mL) P. mirabilis (Proteus mirabilis; Proteus mirabilis, 96-well plate, 5×10^5 CFU/mL, 37° C., 10 h)
25 µg/mL: MIC (μg/mL) M. catarrhalis (Moraxella catarrhalis; Moraxella catarrhalis, 96-well plate, 5×10^5 CFU/mL, 37° C., 10 h) | MIC (μg/mL) A. hydrophila (Aeromonas hydrophila; Aeromonas hydrophila, 96-well plate, 5×10^5 CFU/mL, 37° C., 10 h) | MIC (μg/mL) P. vulgaris (Proteus vulgaris; Proteus vulgaris, 96-well plate, 5×10^5 CFU/mL, 37° C., 10 h)
12.5 µg/mL: MIC (μg/mL) K. pneumonia (Klebsiella pneumonia; Klebsiella pneumonia, 96-well plate, 5×10^5 CFU/mL, 37° C., 10 h) | MIC (μg/mL) S. marcescens (Serratia marcescens; Serratia marcescens, 96-well plate, 5×10^5 CFU/mL, 37° C., 10 h) | MIC (μg/mL) E. coli BL21 (E. coli BL21; E. coli BL21, 96-well plate, 5×10^5 CFU/mL, 37° C., 10 h) | MIC (μg/mL) C. diversus (Citrobacter diversus; Citrobacter diversus, 96-well plate, 5×10^5 CFU/mL, 37° C., 10 h)

PRT471 (VCEPGCGAHGTCHEPNKCQCQEGWHGRHCN; listed as Homo sapiens)
25 µg/mL: MIC against P. vulgaris (Proteus vulgaris; [1])
100 µg/mL: MIC (E. coli DH5α)
12.5 µg/mL: MIC against E. cloacae (Enterobacter cloacae; [1]) | MIC against M. catarrhalis (Moraxella catarrhalis; [1]) | MIC against A. hydrophila (Aeromonas hydrophila; [1]) | MIC against P. aeruginosa (Pseudomonas aeruginosa; [1]) | MIC against K. pneumonia (Klebsiella pneumonia; [1]) | MIC against S. marcescens (Serratia marcescens; [1]) | MIC against E. coli BL21 (E. coli BL21; [1]) | MIC against C. diversus (Citrobacter diversus; [1]) | MIC against P. mirabilis (Proteus mirabilis; [1])

PRT903 (DINECASDPCRNGANCTDCVDSYTCTCPAGFSGIHCE; listed as Homo sapiens)
50 µg/mL: MIC (Enterobacter cloacae; E. cloacae, 10 h cultivation at 37° C.) | MIC (E. coli BL21; E. coli BL21, 10 h cultivation at 37° C.) | MIC (Citrobacter diversus; C. diversus, 10 h cultivation at 37° C.) | MIC (Proteus vulgaris; P. vulgaris, 10 h cultivation at 37° C.)
25 µg/mL: MIC (Klebsiella pneumonia; K. pneumonia, 10 h cultivation at 37° C.) | MIC (Proteus mirabilis; P. mirabilis, 10 h cultivation at 37° C.)
12.5 µg/mL: MIC (Moraxella catarrhalis; M. catarrhalis, 10 h cultivation at 37° C.) | MIC (Aeromonas hydrophila; A. hydrophila, 10 h cultivation at 37° C.) | MIC (Pseudomonas aeruginosa; P. aeruginosa, 10 h cultivation at 37° C.) | MIC (E. coli DH5α) | MIC (Serratia marcescens; S. marcescens, 10 h cultivation at 37° C.)

PRT665 (GIDRCAAGATNVCGPGTCVNLPDGYRCVCSPGYQLHPSQAYCT; listed as Homo sapiens)
50 µg/mL: MIC A. hydrophila (Aeromonas hydrophila; [1]) | MIC E. coli BL21 (E. coli BL21; [1]) | MIC P. vulgaris (Proteus vulgaris; [1])
12.5 µg/mL: MIC M. catarrhalis (Moraxella catarrhalis; [1]) | MIC K. pneumonia (Klebsiella pneumonia; [1])
25 µg/mL: MIC E. cloacae (Enterobacter cloacae; [1]) | MIC P. aeruginosa (Pseudomonas aeruginosa; [1]) | MIC (E. coli DH5α) | MIC S. marcescens (Serratia marcescens; [1]) | MIC C. diversus (Citrobacter diversus; [1]) | MIC P. mirabilis (Proteus mirabilis; [1])

PRT1116 (DIDECASRPCHHGATCRNLADRYECHCPLGYAGVTCE; listed as Homo sapiens)
25 µg/mL: MIC E. cloacae (Enterobacter cloacae; [2]) | MIC M. catarrhalis (Moraxella catarrhalis; [2]) | MIC A. hydrophila (Aeromonas hydrophila; [2]) | MIC P. aeruginosa (Pseudomonas aeruginosa; [2]) | MIC (E. coli DH5α) | MIC P. vulgaris (Proteus vulgaris; [2])
50 µg/mL: MIC P. mirabilis (Proteus mirabilis; [2])
12.5 µg/mL: MIC K. pneumonia (Klebsiella pneumonia; [2]) | MIC S. marcescens (Serratia marcescens; [2]) | MIC E. coli BL21 (E. coli BL21; [2]) | MIC C. diversus (Citrobacter diversus; [2])

PRT1160 (DTEDCKSASCKNGTTSTHLRGYFFRKCVPGFKGTQCE; listed as Homo sapiens)
25 µg/mL: MIC K. pneumonia (Klebsiella pneumonia; [2]) | MIC S. marcescens (Serratia marcescens; [2]) | MIC E. coli BL21 (E. coli BL21; [2]) | MIC C. diversus (Citrobacter diversus; [2]) | MIC P. mirabilis (Proteus mirabilis; [2])
12.5 µg/mL: MIC E. cloacae (Enterobacter cloacae; [2]) | MIC M. catarrhalis (Moraxella catarrhalis; [2]) | MIC A. hydrophila (Aeromonas hydrophila; [2]) | MIC P. aeruginosa (Pseudomonas aeruginosa; [2]) | MIC (E. coli DH5α) | MIC P. vulgaris (Proteus vulgaris; [2])

PRT849 (CPCSAVTSTGSCSIKSSELEPECDQCKDGYIGPNCNKCENGYYNFDSICRK; listed as Homo sapiens)
25 µg/mL: MIC (μg/mL) M. catarrhalis (Moraxella catarrhalis; M. catarrhalis, 10 h cultivation at 37° C., 5×10^5 CFU/mL) | MIC (μg/mL) A. hydrophila (Aeromonas hydrophila; A. hydrophila, 10 h cultivation at 37° C., 5×10^5 CFU/mL) | MIC (μg/mL) S. marcescens (Serratia marcescens; S. marcescens, 10 h cultivation at 37° C., 5×10^5 CFU/mL)
12.5 µg/mL: MIC (μg/mL) E. cloacae (Enterobacter cloacae; E. cloacae, 10 h cultivation at 37° C., 5×10^5 CFU/mL) | MIC (μg/mL) P. aeruginosa (Pseudomonas aeruginosa; P. aeruginosa, 10 h cultivation at 37° C., 5×10^5 CFU/mL) | MIC (E. coli DH5α) | MIC (μg/mL) K. pneumonia (Klebsiella pneumonia; K. pneumonia, 10 h cultivation at 37° C., 5×10^5 CFU/mL) | MIC (μg/mL) E. coli BL21 (E. coli BL21; E. coli BL21, 10 h cultivation at 37° C., 5×10^5 CFU/mL) | MIC (μg/mL) C. diversus (Citrobacter diversus; C. diversus, 10 h cultivation at 37° C., 5×10^5 CFU/mL) | MIC (μg/mL) P. mirabilis (Proteus mirabilis; P. mirabilis, 10 h cultivation at 37° C., 5×10^5 CFU/mL) | MIC (μg/mL) P. vulgaris (Proteus vulgaris; P. vulgaris, 10 h cultivation at 37° C., 5×10^5 CFU/mL)
